Laboratory results from patent US20200163896A1, “FLOATABLE PHARMACEUTICAL MICROCAPSULE COMPOSITION” (Nanyang Technological University, priority 2017, published 2020).
Where two headings read alike, the source gives them in different places.

How the values were obtained:
[1] = cited from earlier work
[2] = In vitro drug release in SGF for 48 h; assay type: physicochemical; conditions: 37° C., casein 0-5% (w/v)
Experimental: In vitro release study was conducted in SGF for 48 h. In some experiments, the study was conducted in SGF, followed by SIF, where the total duration in SGF and SIF is 48 h. Each microcapsule sample (20 mg) was added to a bottle containing SGF or SIF medium (20 mL). Both SGF and SIF bottles were placed in a 37° C. rotating incubator. At different time points, half of the medium (10 mL) in each bottle was extracted and replaced with 10 mL new medium. The time points included intervals of hours within a 48-hour period. The drug content in the extracted medium was analyzed using RP-HPLC with the procedure mentioned in Example 1 for determining encapsulation efficiency.

[3] = Plasma pharmacokinetics after oral gavage in mice; assay type: in vivo; conditions: for MRT: mouse, plasma, oral, Table 3
Experimental: The experimental mice were divided into two groups (control and F2) each comprising of five animals. Control formulation (as a solution) was prepared fresh each experimental day in 0.6% methyl cellulose diluted with saline solution. Mice were subsequently administered with 200 ul (control) or 300 μl (pellet) single dose of drug solution at LD:CD:ENT=10:2.5:20 mg·kg^−1 (Group 1, conventional formulation) and LD:CD:ENT=10:2.5:20 mg·kg^−1 (Group 2, F2 via oral gavage using a feeding syringe. At stipulated time points of 0.25, 0.5, 1, 2, 4, 8, 12, 24 hr, the mice were euthanized and blood was collected via cardiac puncture with ethylenediaminetetraacetic acid (EDTA) as the anticoagulant. The blood samples were then centrifuged (4,500 rpm) for 10 min at 25° C. to obtain the plasma. In addition, the brain was harvested and flash freeze in liquid nitrogen. Samples were stored in −80° C. before further analysis via LC/MS. Analysis of drugs in plasma and brain was conducted using LC/MS (Ribeiro et al., (2015). Bioanalysis, 7, 207-220). An Agilent 1290 HPLC system with an Agilent 6120 Quadrupole Mass Spectrometer was used to measure plasma and brain concentrations of drugs. The mobile phase consisted of a gradient of (A) 0.1% (v/v) formic acid (FA) and a mixture of ACN:MeOH (90:10, v/v) containing 0.1% (v/v) FA.
XBridge C8 column (150×4.6 mm; particle size 5 μm) was used at 30° C. The injection volume of samples was 20 μl. Plasma and brain extracted solution were mixed with internal standard and extracted by solid-phase extraction. The calibration curves were linear over the range of 2 to 2000 ng/mL for LD, 2 to 400 ng/mL for CD and 5 to 3000 ng/mL for ENT.

[4] = casein-microcapsule versus control

| Release rate of drug from microcapsules versus casein concentration [2] | Compound | Log P [1] | further results |
| --- | --- | --- | --- |
| independent of casein concentration | CN(C)C(=N)N=C(N)N [MET, metformin] |  |  |
| independent of casein concentration | N[C@@H](Cc1ccc(O)c(O)c1)C(=O)O [LD, levodopa] |  | increase of MRT of levodopa [3, 4]: ~4 ×; increase of bioavailability (AUC) of levodopa [3, 4]: 2.8 ×; MRT ([3]; given as casein-microcapsule, read-out: mean residence time (MRT) of levodopa, casein-microcapsule): 10.1 h; MRT ([3]; given as control formulation, read-out: mean residence time (MRT) of levodopa, control): 2.6 h |

The next lines start with the molecule.

| Compound | Release rate of drug from microcapsules versus casein concentration [2] | Log P [1] | further results |
| --- | --- | --- | --- |
| CC[C@@H](CO)NCCN[C@@H](CC)CO [ETH, ethambutol] | independent of casein concentration | −0.14 |  |
| CO[C@H]1/C=C/O[C@@]2(C)Oc3c(C)c(O)c4c(O)c(c(/C=N/N5CCN(C)CC5)c(O)c4c3C2=O)NC(=O)/C(C)=C\C=C\[C@H](C)[C@H](O)[C@@H](C)[C@@H](O)[C@@H](C)[C@H](OC(C)=O)[C@@H]1C [RIF, rifampicin] |  | 4.24 |  |
| C[C@@](Cc1ccc(O)c(O)c1)(NN)C(=O)O [CD, carbidopa] | independent of casein concentration |  |  |
| NNC(=O)c1ccncc1 [ISO, isoniazid] | independent of casein concentration | −0.7 |  |
